Measured values published in US11098041B2 (Merck Patent GmbH, priority 2014, dated 2021).

Assays:
full-length human BTK = full-length human BTK (Homo sapiens (Human), UniProt Q06187); experiment: Assay A: microfluidic off-chip mobility shift assay against BTK enzyme; type: biochemical
[1] = target: BTK C481S (His-TEV-hsBTK(328-659)(C481S)) (Homo sapiens (Human), UniProt Q06187, C481S); experiment: Assay B: microfluidic off-chip mobility shift assay against BTK C481S enzyme; type: biochemical; conditions: BTK C481S mutant
BTK C481S (His-TEV-hsBTK(328-659)(C481S)), sequence (Q06187 328-659 C481S): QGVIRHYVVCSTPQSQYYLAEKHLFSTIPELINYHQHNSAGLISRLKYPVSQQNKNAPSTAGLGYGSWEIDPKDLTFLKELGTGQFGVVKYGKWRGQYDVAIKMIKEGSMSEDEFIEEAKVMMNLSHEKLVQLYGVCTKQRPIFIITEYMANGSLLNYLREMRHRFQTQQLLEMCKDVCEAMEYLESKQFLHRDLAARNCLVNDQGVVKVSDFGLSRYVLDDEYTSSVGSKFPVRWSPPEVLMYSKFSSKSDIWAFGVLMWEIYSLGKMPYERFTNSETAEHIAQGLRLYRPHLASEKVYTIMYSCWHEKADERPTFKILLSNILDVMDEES
How it was run: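 Substrate-to-phosphopeptide conversion quantified by microfluidic mobility shift with laser-induced fluorescence; IC50 and efficacy from log[inhibitor] vs. % activity.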

[2] = tested on: anti-IgM-induced expression of CD69 on CD19 positive cells (B cells) in human PBMCs; experiment: Assay C: PBMC IC50 assay (anti-IgM-induced CD69 expression); type: cell-based; conditions: anti-IgM stimulation
How it was run: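 Freshly isolated human PBMCs (2.5×10^5/well) pretreated 1 h with compound, then stimulated overnight (~16-18 h) with goat F(ab′)2 anti-human IgM. CD69 on CD19+ B cells measured by flow cytometry; IC50 from percentage CD69+ B cells versus concentration.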

full-length human BTK, sequence (Q06187 whole entry): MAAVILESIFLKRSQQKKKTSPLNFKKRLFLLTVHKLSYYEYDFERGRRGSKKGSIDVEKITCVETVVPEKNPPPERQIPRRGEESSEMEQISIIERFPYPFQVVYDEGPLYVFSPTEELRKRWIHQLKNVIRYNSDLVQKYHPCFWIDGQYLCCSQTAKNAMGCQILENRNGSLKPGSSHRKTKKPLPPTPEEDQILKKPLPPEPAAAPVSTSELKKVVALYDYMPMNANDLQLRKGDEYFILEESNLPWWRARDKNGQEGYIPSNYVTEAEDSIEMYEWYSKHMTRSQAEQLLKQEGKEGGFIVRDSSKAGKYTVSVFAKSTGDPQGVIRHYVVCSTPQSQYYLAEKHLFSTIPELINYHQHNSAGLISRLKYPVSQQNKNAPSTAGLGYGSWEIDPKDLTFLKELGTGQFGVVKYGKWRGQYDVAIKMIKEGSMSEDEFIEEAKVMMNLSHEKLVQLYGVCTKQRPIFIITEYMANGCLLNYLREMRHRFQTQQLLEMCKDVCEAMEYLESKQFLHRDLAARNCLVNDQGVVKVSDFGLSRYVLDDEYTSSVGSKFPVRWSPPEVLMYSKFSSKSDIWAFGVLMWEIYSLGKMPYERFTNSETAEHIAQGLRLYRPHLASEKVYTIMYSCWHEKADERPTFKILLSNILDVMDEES

SMILES | IC50 (full-length human BTK) [nM] | IC50 [1] [nM] | IC50 [2] [nM]
Cn1cc(-c2nc3c(-c4cccc(NC(=O)N5CC(OC(C)(C)C)C5)c4CO)ccnc3[nH]2)cn1 [Example 91, 3-(tert-Butoxy)-N-[2-(hydroxymethyl)-3-[2-(1-methyl-1H-pyrazol-4-yl)-3H-imidazo[4,5-b]pyridin-7-yl]phenyl]azetidine-1-carboxamide] | < 100 | < 100 | 100 to 1000
CN1CCN(Cc2ccc(-c3nc4c(-c5cccc(N6CCOc7cc(C8CC8)cc(F)c7C6=O)c5CO)ccnc4[nH]3)nc2)CC1 [Example 35, 8-Cyclopropyl-6-fluoro-4-[2-(hydroxymethyl)-3-(2-[5-[(4-methylpiperazin-1-yl)methyl]pyridin-2-yl]-3H-imidazo[4,5-b]pyridin-7-yl)phenyl]-2,3,4,5-tetrahydro-1,4-benzoxazepin-5-one] | < 100 | < 100 | 100 to 1000
CC(C)(C)c1nc(C(=O)NCc2ccc(-c3ccnc4[nH]c(-c5cnn(CCO)c5)nc34)cc2F)no1 [Example 70, 5-tert-Butyl-N-[(2-fluoro-4-[2-[1-(2-hydroxyethyl)-1H-pyrazol-4-yl]-3H-imidazo[4,5-b]pyridin-7-yl]phenyl)methyl]-1,2,4-oxadiazole-3-carboxamide] | < 100 | < 100 | 100 to 1000
CN(C)c1ccc(-c2nc3c(-c4ccc(CNC(=O)N5CC(OC(C)(C)C)C5)c(F)c4)ccnc3[nH]2)nc1 [Example 90, 3-(tert-Butoxy)-N-[(4-[2-[5-(dimethylamino)pyridin-2-yl]-3H-imidazo[4,5-b]pyridin-7-yl]-2-fluorophenyl)methyl]azetidine-1-carboxamide] | < 100 | 100 to 1000 | 1000 to 5000
COc1ccnc(-c2nc3c(-c4ccc(CNC(=O)c5noc(C(C)(C)C)n5)c(F)c4)ccnc3[nH]2)c1 [Example 75, 5-tert-Butyl-N-([2-fluoro-4-[2-(4-methoxypyridin-2-yl)-3H-imidazo[4,5-b]pyridin-7-yl]phenyl]methyl)-1,2,4-oxadiazole-3-carboxamide] | < 100 | < 100 | 100 to 1000
CN(C)c1ccc(-c2nc3c(-c4ccc(CNC(=O)c5nc(C(C)(C)C)no5)c(F)c4)ccnc3[nH]2)nc1 [Example 148, 3-(tert-butyl)-N-(4-(2-(5-(dimethylamino)pyridin-2-yl)-3H-imidazo[4,5-b]pyridin-7-yl)-2-fluorobenzyl)-1,2,4-oxadiazole-5-carboxamide] | < 100 | < 100 | < 100
Cn1cc(-c2nc3c(-c4ccnc(N5CCn6c(cc7c6CC(C)(C)C7)C5=O)c4CO)ccnc3[nH]2)cn1 [Example 11, 2-(3-(hydroxymethyl)-4-(2-(1-methyl-1H-pyrazol-4-yl)-3H-imidazo[4,5-b]pyridin-7-yl)pyridin-2-yl)-7,7-dimethyl-2,3,4,6,7,8-hexahydro-1H-cyclopenta[4,5]pyrrolo[1,2-a]pyrazin-1-one] | < 100 | < 100 | 100 to 1000
Cn1cc(-c2nc3c(-c4ccc(CNC(=O)c5ccc(C(C)(C)C)cc5)cc4)ccnc3[nH]2)cn1 [Example 110, 4-tert-Butyl-N-{4-[2-(1-methyl-1H-pyrazol-4-yl)-3H-imidazo[4,5-b]pyridin-7-yl]-benzyl}-benzamide] | < 100 | < 100 | 100 to 1000
CC(C)(C)c1nc(C(=O)NCc2ccc(-c3ccnc4[nH]c(-c5cnn(CCN)c5)nc34)cc2F)no1 [Example 72, N-[(4-[2-[1-(2-aminoethyl)-1H-pyrazol-4-yl]-3H-imidazo[4,5-b]pyridin-7-yl]-2-fluorophenyl)methyl]-5-tert-butyl-1,2,4-oxadiazole-3-carboxamide] | < 100 | 100 to 1000 | 100 to 1000
CC(C)(C)c1nc(C(=O)NCc2ccc(-c3ccnc4[nH]c(-c5ccc(N6CCCCC6)cn5)nc34)cc2F)no1 [Example 83, 5-tert-Butyl-N-[(2-fluoro-4-[2-[5-(piperidin-1-yl)pyridin-2-yl]-3H-imidazo[4,5-b]pyridin-7-yl]phenyl)methyl]-1,2,4-oxadiazole-3-carboxamide] | < 100 | < 100 | < 100
CC(C)(C)c1ccc(C(=O)NCc2ccc(-c3ccnc4[nH]c(-c5ccc(C6=CCNCC6)cc5)nc34)cc2F)cc1 [Example 66, 4-tert-Butyl-N-[(2-fluoro-4-[2-[4-(1,2,3,6-tetrahydropyridin-4-yl)phenyl]-3H-imidazo[4,5-b]pyridin-7-yl]phenyl)methyl]benzamide] | < 100 | < 100 | 100 to 1000
Cn1cc(-c2nc3c(-c4ccc(CNC(=O)CCCC(C)(C)C)c(F)c4)ccnc3[nH]2)cn1 [Example 14, 5,5-Dimethyl-hexanoic acid 2-fluoro-4-[2-(1-methyl-1H-pyrazol-4-yl)-3H-imidazo[4,5-b]pyridin-7-yl]-benzylamide] | < 100 | < 100 | 1000 to 5000
Cn1cc(-c2nc3c(-c4cc(F)cc(N5CCn6c(cc7c6CC(C)(C)C7)C5=O)c4CO)ccnc3[nH]2)cn1 [Example 10, 2-(5-fluoro-2-(hydroxymethyl)-3-(2-(1-methyl-1H-pyrazol-4-yl)-3H-imidazo[4,5-b]pyridin-7-yl)phenyl)-7,7-dimethyl-2,3,4,6,7,8-hexahydro-1H-cyclopenta[4,5]pyrrolo[1,2-a]pyrazin-1-one] | < 100 | < 100 | < 100
Cn1cc(-c2nc3c(-c4ccc(C(C)(C)NC(=O)c5nnc(C(C)(C)C)o5)c(F)c4)ccnc3[nH]2)cn1 [Example 104, 5-tert-Butyl-[1,3,4]oxadiazole-2-carboxylic acid (1-{2-fluoro-4-[2-(1-methyl-1H-pyrazol-4-yl)-3H-imidazo[4,5-b]pyridin-7-yl]-phenyl}-1-methyl-ethyl)-amide] | < 100 | < 100 | 1000 to 5000
Cn1cc(-c2nc3c(-c4ccc(C5(NC(=O)c6noc(C(C)(C)C)n6)CC5)cc4)ccnc3[nH]2)cn1 [Example 53, 5-tert-Butyl-N-(1-[4-[2-(1-methyl-1H-pyrazol-4-yl)-3H-imidazo[4,5-b]pyridin-7-yl]phenyl]cyclopropyl)-1,2,4-oxadiazole-3-carboxamide] | < 100 | < 100 | < 100
O=C(NCc1ccc(-c2ccnc3[nH]c(-c4cnn(CCN5CCOCC5)c4)nc23)cc1F)c1nnc(C2CCOCC2)o1 [Example 122, 5-(Tetrahydro-pyran-4-yl)-[1,3,4]oxadiazole-2-carboxylic acid 2-fluoro-4-{2-[1-(2-morpholin-4-yl-ethyl)-1H-pyrazol-4-yl]-3H-imidazo[4,5-b]pyridin-7-yl}-benzylamide] | 100 to 1000 | 100 to 1000 | > 5000
Cn1cc(-c2nc3c(-c4cccc(NC(=O)c5ccc(C6CC6)nc5)c4CO)ccnc3[nH]2)cn1 [Example 49, 6-Cyclopropyl-N-[2-(hydroxymethyl)-3-[2-(1-methyl-1H-pyrazol-4-yl)-3H-imidazo[4,5-b]pyridin-7-yl]phenyl]pyridine-3-carboxamide] | < 100 | < 100 | 100 to 1000
CC(C)(C)c1nnc(C(=O)NCc2ccc(-c3ccnc4[nH]c(C5=CCNCC5)nc34)cc2F)o1 [Example 140, 5-tert-Butyl-[1,3,4]oxadiazole-2-carboxylic acid 2-fluoro-4-[2-(1,2,3,6-tetrahydro-pyridin-4-yl)-3H-imidazo[4,5-b]pyridin-7-yl]-benzylamide] | < 100 | < 100 | 1000 to 5000
CC(C)(C)c1nc(C(=O)NCc2ccc(-c3ccnc4[nH]c(C5CC5)nc34)cc2F)no1 [Example 27, 5-tert-Butyl-[1,2,4]oxadiazole-3-carboxylic acid 4-(2-cyclopropyl-3H-imidazo[4,5-b]pyridin-7-yl)-2-fluoro-benzylamide] | < 100 | < 100 | 1000 to 5000
CN1CCN(c2ccc(-c3nc4c(-c5ccc(CNC(=O)c6noc(C(C)(C)C)n6)c(F)c5)ccnc4[nH]3)nc2)CC1 [Example 79, 5-tert-Butyl-N-[(2-fluoro-4-[2-[5-(4-methylpiperazin-1-yl)pyridin-2-yl]-3H-imidazo[4,5-b]pyridin-7-yl]phenyl)methyl]-1,2,4-oxadiazole-3-carboxamide] | < 100 | < 100 | < 100
CN(C)c1ccc(-c2nc3c(-c4ccc(CNC(=O)c5ccc(C(C)(C)C)cc5)c(F)c4)ccnc3[nH]2)nc1 [Example 89, 4-tert-Butyl-N-[(4-[2-[5-(dimethylamino)pyridin-2-yl]-3H-imidazo[4,5-b]pyridin-7-yl]-2-fluorophenyl)methyl]benzamide] | < 100 | < 100 | 1000 to 5000
CC(C)(C)c1nc(C(=O)NCc2ccc(-c3ccnc4[nH]c(-c5ccc(N6CCCC6)cn5)nc34)cc2F)no1 [Example 80, 5-tert-Butyl-N-[(2-fluoro-4-[2-[5-(pyrrolidin-1-yl)pyridin-2-yl]-3H-imidazo[4,5-b]pyridin-7-yl]phenyl)methyl]-1,2,4-oxadiazole-3-carboxamide] | < 100 | < 100 | 100 to 1000
CN(C)c1ccc(-c2nc3c(-c4ccc(CNC(=O)c5noc(C(C)(C)C)n5)c(F)c4)ccnc3[nH]2)cc1 [Example 145, 5-(tert-butyl)-N-(4-(2-(4-(dimethylamino)phenyl)-3H-imidazo[4,5-b]pyridin-7-yl)-2-fluorobenzyl)-1,2,4-oxadiazole-3-carboxamide] | < 100 | < 100 | < 100
